# Measured values as given in patent US6685617B1, “Inhibitors of α4β1 mediated cell adhesion” (Pharmacia & Upjohn Company, priority 1998, dated 2004).
# Tests used:
# [1] = target: T1, α4β1 integrin (Jurkat T-cell adhesion to IL-1 stimulated endothelial cell monolayers) (Homo sapiens, UniProt P05556+P13612); experiment: Jurkat-endothelial cell adhesion assay (Jurkat EC); type: cell-based; details: Jurkat cells on IL-1 stimulated human umbilical vein endothelial cells; read-out: JK/EC (Jurkat EC Assay IC50 value range)
# T1 construct: a T-cell line, Jurkat, known to express the α4β1 integrin; host or cells: Jurkat T-cell line
# T1 sequence (P13612 34-1032): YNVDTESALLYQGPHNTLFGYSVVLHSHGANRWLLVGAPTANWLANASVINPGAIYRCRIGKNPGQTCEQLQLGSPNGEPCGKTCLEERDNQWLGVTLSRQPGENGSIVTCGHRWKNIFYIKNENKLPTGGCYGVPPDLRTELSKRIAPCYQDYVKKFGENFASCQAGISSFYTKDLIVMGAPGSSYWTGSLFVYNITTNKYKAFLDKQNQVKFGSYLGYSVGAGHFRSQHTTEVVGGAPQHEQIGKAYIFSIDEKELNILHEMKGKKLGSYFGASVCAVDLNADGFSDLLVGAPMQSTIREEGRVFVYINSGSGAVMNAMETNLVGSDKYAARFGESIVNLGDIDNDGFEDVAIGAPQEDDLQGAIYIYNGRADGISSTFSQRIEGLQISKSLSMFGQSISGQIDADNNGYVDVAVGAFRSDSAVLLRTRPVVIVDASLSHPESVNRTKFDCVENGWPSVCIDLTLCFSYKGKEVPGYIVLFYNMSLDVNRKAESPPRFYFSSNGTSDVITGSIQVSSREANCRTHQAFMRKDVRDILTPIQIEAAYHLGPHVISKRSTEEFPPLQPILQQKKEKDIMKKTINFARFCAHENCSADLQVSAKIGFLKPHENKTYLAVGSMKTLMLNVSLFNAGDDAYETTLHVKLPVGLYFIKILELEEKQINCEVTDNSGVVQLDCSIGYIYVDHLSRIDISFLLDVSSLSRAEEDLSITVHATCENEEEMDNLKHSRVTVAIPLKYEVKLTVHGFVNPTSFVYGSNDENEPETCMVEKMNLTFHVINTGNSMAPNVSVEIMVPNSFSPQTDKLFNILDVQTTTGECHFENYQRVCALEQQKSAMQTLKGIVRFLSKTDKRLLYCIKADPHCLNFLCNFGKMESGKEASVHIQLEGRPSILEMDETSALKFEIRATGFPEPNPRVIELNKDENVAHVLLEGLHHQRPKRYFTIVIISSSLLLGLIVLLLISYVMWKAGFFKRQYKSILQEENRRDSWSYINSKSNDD
# T1 sequence (P05556 21-798): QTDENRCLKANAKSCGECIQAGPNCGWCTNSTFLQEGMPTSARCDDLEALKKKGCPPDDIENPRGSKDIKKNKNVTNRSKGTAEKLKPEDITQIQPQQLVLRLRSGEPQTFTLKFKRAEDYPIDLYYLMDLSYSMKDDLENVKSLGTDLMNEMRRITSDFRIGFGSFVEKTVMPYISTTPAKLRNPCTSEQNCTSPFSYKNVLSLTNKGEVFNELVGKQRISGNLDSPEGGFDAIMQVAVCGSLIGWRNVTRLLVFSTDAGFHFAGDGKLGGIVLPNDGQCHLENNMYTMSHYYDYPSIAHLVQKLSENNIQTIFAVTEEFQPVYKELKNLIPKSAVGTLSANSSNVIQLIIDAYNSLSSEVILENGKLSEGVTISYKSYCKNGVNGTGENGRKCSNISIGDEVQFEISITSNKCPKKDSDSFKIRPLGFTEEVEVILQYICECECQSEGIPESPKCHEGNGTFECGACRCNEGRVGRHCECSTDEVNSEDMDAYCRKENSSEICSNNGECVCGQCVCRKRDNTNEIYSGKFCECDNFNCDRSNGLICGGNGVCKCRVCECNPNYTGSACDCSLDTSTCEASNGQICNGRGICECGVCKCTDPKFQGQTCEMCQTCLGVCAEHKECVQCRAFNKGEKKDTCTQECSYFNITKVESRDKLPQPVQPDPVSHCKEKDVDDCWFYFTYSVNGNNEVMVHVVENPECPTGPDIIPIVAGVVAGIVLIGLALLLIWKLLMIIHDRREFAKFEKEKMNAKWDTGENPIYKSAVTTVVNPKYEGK
# Protocol: Jurkat-endothelial Cell Adhesion Assay:
# The following assay established the activity of the present compounds in inhibiting β1-mediated cell adhesion in a representative in vitro system. This assay measures the adhesive interactions of a T-cell line, Jurkat, known to express the α4β1 integrin, to endothelial monolayers in the presence of test compounds. The test compounds were added in increasing concentrations to T-cells and then the T-cell compound mixture was added to IL-1 stimulated endothelial cell monolayers. The plates were incubated, washed and the percentage of attached cells was quantitated.
# Human umbilical vein endothelial cells were purchased from Clonetics (San Diego, Calif.) at passage number 2. The cells were grown on 0.5% porcine skin gelatin pre-coated flasks (Sigma, St. Louis Mo.) in EGM-UV media (Clonetics, San Diego, Calif.) supplemented with 10% fetal bovine serum. Cells are refed every 2-3 days reaching confluence by day 4 to 6. […] The endothelial cells are not used following passage 6.
# The T-cell line Jurkat was obtained from American Type Tissue Culture Collection (Rockville, Md.) and the cells were cultured in RPMI containing 10% fetal calf serum. The cells were washed twice in Hank's Balanced Salt Solution (HBSS) and resuspended in Dulbecco's Minimal Eagle's Media (DMEM) containing 2.5 mg/ml Human Serum Albumin (HSA). Jurkat cells (1×10^6 cells/ml) were stained with 10 ng/ml BCECF-AM (Molecular Probes, Eugene, Oreg.)) in HBSS without phenol red. The cells were loaded with BCECF for 60 minutes in the dark at 370C, washed 2 times, and resuspended in DMEM-HSA solution.
# Confluent endothelial monolayers, grown in 96-well tissue culture plates, were stimulated for 4 hr. at 37° C. with 0.1 ng/ml (˜50 U/ml) recombinant IL-1 (Amgen, Thousand Oaks, Calif.). Following this incubation, the monolayers were washed twice with HBSS and 0.1 ml of DMEM−HSA solution was added. Jurkat cells (5×10^5 cells) were combined with the appropriate concentration of the test compound and 0.1 ml of the Jurkat cell-compound mixture was added to the endothelial cell monolayers. Generally, 100, 20, 5 and 1.25 μM compound concentrations were tested. […] The plates were placed on ice for 5 minutes to allow for Jurkat cell settling and the plates were incubated at 37° C. for 20 minutes. Following this incubation, the monolayers were washed twice with PBS containing 1 mM calcium chloride and 1 mM magnesium chloride and the plates were read using a Millipore Cytofluor 2300 (Marlboro, Mass.). Fluorescence in each well was measured as Arbitrary Fluorescence Units and percent adhesion in the absence of compound was adjusted to 100% and the % adhesion in the presence of compound was calculated. Monolayers were also fixed in 3% paraformaldehyde and evaluated microscopically to verify the adhesion. This procedure is a modification of a previously published method (Cardarelli et al., J. Biol. Chem. 269:18668-18673 (1994)).
# [2] = target: T2, α4β1 integrin (Jurkat cell adhesion to immobilized CS-1 derived peptide CLHPGEILDVPST) (Homo sapiens, UniProt P05556+P13612); experiment: Jurkat-CS-1 assay; type: cell-based; details: Jurkat cells on CS-1 peptide coated plates; read-out: JK/CS-1 (Jurkat CS-1 Assay IC50 value range)
# T2 construct: 100 μl of Jurkat cells (2.5×10^6 cells/ml) in DMEM plus BSA; host or cells: Jurkat T-cell line
# T2 sequence (P13612 34-1032): as the sequence (P13612 34-1032) above
# T2 sequence (P05556 21-798): as the sequence (P05556 21-798) above
# Protocol: The CS-1 derived peptide, CLHPGEILDVPST, and the scrambled control peptide, CLHGPIELVSDPT, were synthesized on a Beckman 990 synthesizer using t-Boc methodology. The peptides were immobilized onto microtiter plates using the heterobifunctional crosslinker 3-(2-pyridyldithio)propionic acid N-hydroxysuccinimide ester (SPDP) as reported by Pierschbacher et al., Proc. Natl. Acad. USA, 80:1224-1227 (1983). Microtiter plates were coated with 20 μg/ml HSA for 2 hr. at room temperature, washed once with PBS and derivatized with 10 μg/ml SPDP for 1 hr. After washing, 100 μl of a 100 μg/ml cysteine containing peptide solution which had been recently dissolved was added to the wells and allowed to crosslink to the plates overnight at 4° C. Unbound peptide was removed from plates by washing with PBS. To block non-reacted sites, the plates are coated with 100 μl of a 2.5 mg/ml BSA solution in PBS for 1 hr. at 37° C. 100 μl of Jurkat cells (2.5×10^6 cells/ml) in DMEM plus BSA (2.5 mg/ml) was mixed with an appropriate concentration of the compound to be tested and the mixture was added to peptide coated dishes and incubated for 1 hr. at 37° C. Generally 100, 20, 5 and 1.25 μM concentrations of the compound were tested.
# Following this incubation the plates were washed once with PBS and the attached cells were fixed with 3% paraformaldehyde in PBS and stained with 0.5% toluidine blue in 3.7% formaldehyde. The cells were stained overnight at room temperature and the optical density at 590 nm of toluidine blue stained cells was determined using a vertical pathway spectrophotometer to quantitate attachment (VMAX Kinetic Microplate Reader, Molecular Devices, Menlo Park, Calif.). This procedure is a modification of a previously published method (Cardarelli et al, J. Biol. Chem., 269:18668-18673 (1994) and Cardarelli et al, Proc. Natl. Acad. Sci. USA, 83:2647-2651 (1986)).
SMILES,IC50 [1] [nM],IC50 [2] [nM]
"COC(=O)[C@H](Cc1ccc(NC(=O)c2c(Cl)cccc2Cl)cc1)NC(=O)[C@H]1CSCN1C(=O)OCCN1CCOCC1 (relative stereo) [Example 24, [S-(R*,R*)]-4-[[[1-[[4-[(2,6-Dichlorobenzoyl)amino]phenyl]methyl]-2-methoxy-2-oxoethyl]amino]carbonyl]-3-thiazolidinecarboxylic Acid 3-[2-(4-Morpholinyl)ethyl]ester]",250 to 1000,50 to 750
"COC(=O)[C@H](Cc1ccc(NC(=O)c2c(Cl)cccc2Cl)cc1)NC(=O)[C@@H]1N(C(=O)OC(C)(C)C)CSC1(C)C (relative stereo) [Example 28, [S-(R*,R*)]-4-[[[1-[[4-[(2,6-Dichlorobenzoyl)amino]phenyl]methyl]-2-methoxy-2-oxoethyl]amino]carbonyl]-5,5-dimethyl-3-thiazolidinecarboxylic Acid 3-(1,1-Dimethylethyl)ester]",≥ 1000,≥ 750
"CC(C)(C)OC(=O)N1CSC(C)(C)[C@@H]1C(=O)N[C@@H](Cc1ccc(NC(=O)c2c(Cl)cccc2Cl)cc1)C(=O)O (relative stereo) [Example 29, [S-(R*,R*)]-4-[[[1-Carboxy-2-[4-[(2,6-dichlorobenzoyl)amino]phenyl]ethyl]amino]carbonyl]-5,5-dimethyl-3-thiazolidinecarboxylic Acid 3-(1,1-Dimethylethyl)ester]",250 to 1000,50 to 750
"CCOC(=O)N1CSC(C)(C)[C@@H]1C(=O)N[C@@H](Cc1ccc(NC(=O)c2c(Cl)cccc2Cl)cc1)C(=O)OC (relative stereo) [Example 30, [S-(R*,R*)]-4-[[[1-[[4-[(2,6-Dichlorobenzoyl)amino]phenyl]methyl]-2-methoxy-2-oxoethyl)amino]carbonyl]-5,5-dimethyl-3-thiazolidinecarboxylic Acid 3-Ethyl Ester]",≥ 1000,50 to 750
"COC(=O)[C@H](Cc1ccc(OCc2c(Cl)cccc2Cl)cc1)NC(=O)[C@H]1CSCN1C(=O)OC(C)(C)C (relative stereo) [Example 32, [S-(R*,R*)]-4-[[[1-[4-[(2,6-Dichlorophenyl)methoxy]phenyl]methyl]-2-methoxy-2-oxoethyl]amino]carbonyl]-3-thiazolidinecarboxylic Acid 3-(1,1-Dimethylethyl)ester]",≥ 1000,≥ 750
"CCOC(=O)N1CSC[C@@H]1C(=O)N[C@@H](Cc1ccc(OCc2c(Cl)cccc2Cl)cc1)C(=O)OC (relative stereo) [Example 34, [S-(R*,R*)]-4-[[[1-[4-[(2,6-Dichlorophenyl)methoxy]phenylmethyl]-2-methoxy-2-oxoethyl]amino]carbonyl]-3-thiazolidinecarboxylic Acid 3-Ethyl Ester]",≥ 1000,50 to 750
"CCOC(=O)N1CSC[C@@H]1C(=O)N[C@@H](Cc1ccc(OCc2c(Cl)cccc2Cl)cc1)C(=O)O (relative stereo) [Example 35, [S-(R*,R*)]-4-[[[1-Carboxy-2-[4-[(2,6-dichlorophenyl)methoxy]phenyl]ethyl]amino]carbonyl]-3-thiazolidinecarboxylic Acid 3-Ethyl Ester]",250 to 1000,50 to 750
"CC(C)(C)OC(=O)N1CSC[C@H]1C(=O)N[C@@H](Cc1ccc(OCc2c(Cl)cccc2Cl)cc1)C(=O)O (relative stereo) [Example 41, [R-(R*,S*)]-4-[[[1-Carboxy-2-[4-[(2,6-dichlorophenyl)methoxy]phenyl]ethyl]amino]carbonyl]-3-thiazolidinecarboxylic Acid 3-(1,1-Dimethylethyl)ester]",≥ 1000,≥ 750
"COC(=O)CCCC(=O)N1CSC[C@@H]1C(=O)N[C@@H](Cc1ccc(NC(=O)c2c(Cl)cccc2Cl)cc1)C(=O)OC (relative stereo) [Example 59, [S-(R*,R*)]-4-[[[1-[4-[(2,6-dichlorobenzoyl)amino]phenyl]methyl]-2-methoxy-2-oxoethyl]amino]carbonyl]-δ-oxo-3-thiazolidinepentanoic Acid 3-Methyl Ester]",≥ 1000,50 to 750

# More lines, now with the values ahead:
IC50 [1] [nM],IC50 [2] [nM],SMILES
≤ 250,≤ 50,"O=C(Nc1ccc(C[C@H](NC(=O)[C@H]2CSCN2C(=O)OCCN2CCOCC2)C(=O)O)cc1)c1c(Cl)cccc1Cl (relative stereo) [Example 25, [S-(R*,R*)]-4-[[[1-Carboxy-2-[-4-[(2,6-dichlorobenzoyl)amino]phenyl]ethyl]amino]carbonyl]-3-thiazolidinecarboxylic Acid 3-[2-(4-Morpholinyl)ethyl]ester]"
≤ 250,≤ 50,"CCOC(=O)N1CSC(C)(C)[C@@H]1C(=O)N[C@@H](Cc1ccc(NC(=O)c2c(Cl)cccc2Cl)cc1)C(=O)O (relative stereo) [Example 31, [S-(R*,R*)]-4-[[[1-Carboxy-2-[4-[(2,6-dichlorobenzoyl)amino]phenyl]ethyl]amino]carbonyl]-5,5-dimethyl-3-thiazolidinecarboxylic Acid 3-Ethyl Ester]"
≤ 250,50 to 750,"CC(C)(C)OC(=O)N1CSC[C@@H]1C(=O)N[C@@H](Cc1ccc(OCc2c(Cl)cccc2Cl)cc1)C(=O)O (relative stereo) [Example 33, [S-(R*,R*)]-4-[[[1-Carboxy-2-[4-[(2,6-dichlorophenyl)methoxy]phenyl]ethyl]amino]carbonyl]-3-thiazolidinecarboxylic Acid 3-(1,1-Dimethylethyl)ester]"
≤ 250,≤ 50,O=C(O)[C@H](Cc1ccc(OCc2c(Cl)cccc2Cl)cc1)NC(=O)[C@H]1CSCN1C(=O)OCCN1CCOCC1 (relative stereo) [Example 37]
≤ 250,≤ 50,"O=C(O)CCCC(=O)N1CSC[C@@H]1C(=O)N[C@@H](Cc1ccc(NC(=O)c2c(Cl)cccc2Cl)cc1)C(=O)O (relative stereo) [Example 60, [S-(R*,R*)]-4-[[[1-Carboxy-2-[4-[(2,6-dichlorobenzoyl)amino]phenyl]ethyl]amino]carbonyl]-δ-oxo-3-thiazolidinepentanoic Acid]"
≤ 250,≤ 50,"CC1(C)SCN(C(=O)CCC(=O)O)[C@H]1C(=O)N[C@@H](Cc1ccc(NC(=O)c2c(Cl)cccc2Cl)cc1)C(=O)O (relative stereo) [Example 63, [S-(R*,R*)]-4-[[[1-Carboxy-2-[4-[(2,6-dichlorobenzoyl)amino]phenyl]ethyl]amino]carbonyl]-5,5-dimethyl-δ-oxo-3-thiazolidinebutanoic Acid]"
